These results are taken from patent publication US8569298B2, “Pyridine compounds” (Astrazeneca AB, priority 2008, dated 2013).

T1 sequence (Q05397 422-680 limits assumed): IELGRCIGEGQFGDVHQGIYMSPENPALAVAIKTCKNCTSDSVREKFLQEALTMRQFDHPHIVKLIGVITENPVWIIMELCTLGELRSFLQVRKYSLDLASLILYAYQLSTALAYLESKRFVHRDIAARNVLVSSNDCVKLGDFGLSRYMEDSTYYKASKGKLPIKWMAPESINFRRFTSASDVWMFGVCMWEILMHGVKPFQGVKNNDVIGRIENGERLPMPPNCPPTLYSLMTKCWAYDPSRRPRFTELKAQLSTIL

The assay addresses T1, FAK enzyme (6 His tagged kinase domain, GenBank NP—722560) (Homo sapiens, UniProt Q05397).
T1 construct: 6 His; made in house; host or cells: insect cell culture infected with baculovirus
The experiment in a line: In vitro enzyme assay (a): sandwich ELISA of FAK tyrosine kinase activity on polyGAT peptide, TMB colorimetric endpoint. It counts as biochemical. As to conditions: in vitro Enzyme Assay test (a); ATP at Km; geometric mean of n > 1 measurements, values marked * tested once. On the procedure: (a) In Vitro Enzyme Assay
A sandwich ELISA assay with a 3,3′,5,5′-tetramethyl benzidine (TMB) colorimetric endpoint was used in order to determine the level of effect of selected compounds on inhibition of FAK protein tyrosine kinase enzyme activity. A synthetic tyrosine containing peptide is coated onto a plastic surface, the level of phosphorylation of these tyrosine residues by the kinase enzyme in the presence of inhibitors is measured using an antibody that binds specifically to phosphorylated tyrosine residues. The amount of antibody bound to substrate is proportional to the level of enzyme catalysis.
Assay Protocol to Identify Inhibitors of Focal Adhesion Kinase (FAK).
A PlateMate Plus™ 384 automated liquid handling unit with a 100 μl disposable tip head was used to make all the non compound reagent additions and a Tecan 384PW plate washer with 384 head was used for all wash steps. Initially Matrix 384 well polystyrene plates (Cat #:4311) were coated with 40 μl/well of a 0.0375 mg/ml solution of synthetic poly peptide (polyGAT, Sigma Cat #:P3899) dissolved in phosphate buffered saline (PBS). Plates were stored overnight at 4° C. Immediately before use the coating solution was aspirated out and each well washed with 2×100 μl of PBS+0.05% Tween 20. To remove surplus phosphate, the wells were then washed with 2×100 μl 50 mM HEPES buffer pH 7.4. Plates were blotted dry before the addition of compounds. Compounds were tested over a 12 point dose range, a Labcyte Echo 550 was used to dispense compounds in nl volumes and back fill with DMSO. The final concentration of compound in the assay was dependent on the starting concentration of compound. For a 10 mM stock compound the final assay dose ranged from 100 μM down to […]. Control wells containing 120 nl DMSO (Max) or 120 nl of 10 mM staurosporine (LC Laboratories, Boston, USA Cat #: S-9300) (Min) were included in each plate. 10 ul of 5% dimethyl sulfoxide v/v (DMSO, Fisher Scientific) was added to each well immediately prior to addition of 10 μl of a co-factor solution containing 80 mM MgCl2 (Sigma Cat #: M1028); 80 mM MnCl2 (Sigma Cat #: M1787); ATP at a concentration calculated to enable the initial reaction velocity to progress at half the maximum velocity (Km for ATP) (Sigma Cat #:A7699). A final addition of 20 μl of enzyme solution containing 100 mM HEPES pH7.4; 0.2 mM sodium vanadate (Sigma Cat #:S6508); 0.2 g/l bovine serum albumin (BSA, Sigma Cat #: A7888); 0.2 mM dithioreitol (Sigma Cat #: 5545); 0.1% Triton X100 (Sigma Cat #:X100); FAK enzyme (20 μl/ml) was made to each well to start the assay running FAK enzyme was generated from an insect culture infected with baculo virus containing the DNA sequence encoding the 6 His tagged kinase domain (GenBank NP_722560).
Plates were left at room temperature for 25 minutes before 10 μl of 500 mM ethylenediaminetetraacetic acid (EDTA) was added to stop the assay and the wells were immediately washed 3×100 μl with PBS+0.05% Tween 20. A 4G10 antibody (Millipore Cat #: 16-105; 16-184) with a directly conjugated horse radish peroxidase (HRP) was used to detect the phosphorylation of the substrate by the FAK. 40 μl of PBS+0.05% Tween 20 containing 0.5% BSA and 0.1 μl/ml antibody was added to each well and left for 1 hour at room temperature to allow the antibody to bind. After this period the wells were again washed with 3×100 μl of PBS+0.05% Tween 20. TMB (Sigma Cat #: T2885) was used as a substrate for the HRP. Phosphate-citrate buffer was made up using capsules provided by Sigma (Cat #: P4922) following the manufacturers guidelines. TMB was dissolved at a concentration of 1 mg/ml in DMSO and let down to a final concentration of 0.05 mg/ml with the phosphor-citrate buffer. 40 μl of the TMB solution was added to each assay well and left for 30 minutes for the blue colour to develop. […]
For orientation: IC50 means the point on the concentration scale where inhibition reaches its midpoint. A high value points to weaker potency. Turning to `Cc1nn(C)cc1Nc1cc(Nc2cccc3c2C(=O)N(C)CC3)c(F)cn1` [Example 4.12, 8-[[2-[(1,3-Dimethylpyrazol-4-yl)amino]-5-fluoro-4-pyridyl]amino]-2-methyl-3,4-dihydroisoquinolin-1-one], it took 121 nM to reach half-maximal inhibition (IC50). Take `Cc1nn(C(F)F)cc1Nc1cc(Nc2cccc3c2C(=O)N(C)CC3)c(Cl)cn1` [Example 13.04, 8-[[5-chloro-2-[[1-(difluoromethyl)-3-methyl-pyrazol-4-yl]amino]-4-pyridyl]amino]-2-methyl-3,4-dihydroisoquinolin-1-one]: the IC50 turned out to be 23 nM. This IC50 lies about 5.3-fold lower than the previous one.

As to `CC(C)Cn1cc(Nc2cc(Nc3cccc4c3C(=O)N(C)CC4)c(Cl)cn2)cn1` [Example 6.09, 8-[[5-chloro-2-[(1-isobutylpyrazol-4-yl)amino]-4-pyridyl]amino]-2-methyl-3,4-dihydroisoquinolin-1-one], the IC50 was 71 nM.

On to `CNC(=O)c1ccccc1Nc1cc(Nc2cnn(C)c2C)ncc1C(F)(F)F` [Example 8.03, 2-[[2-[(1,5-dimethylpyrazol-4-yl)amino]-5-(trifluoromethyl)-4-pyridyl]amino]-N-methyl-benzamide], for which it took 6 nM to reach half-maximal inhibition (IC50). Turning to `Cc1nn(C)cc1Nc1cc(Nc2ccc(N3CCN(C(C)C)CC3)c3c2C(=O)N(C)C3)c(Cl)cn1` [Example 3.38, 7-[[5-Chloro-2-[(1,3-dimethylpyrazol-4-yl)amino]-4-pyridyl]amino]-4-(4-isopropylpiperazin-1-yl)-2-methyl-isoindolin-1-one], inhibition was half-maximal at 36 nM (IC50). This IC50 lies about 6-fold higher than the previous one.

In turn, `CN1CCc2cccc(Nc3cc(Nc4cnn(C5CCNCC5)c4)ncc3Cl)c2C1=O` [Example 3.33, 8-[[5-Chloro-2-[[1-(4-piperidyl)pyrazol-4-yl]amino]-4-pyridyl]amino]-2-methyl-3,4-dihydroisoquinolin-1-one] had an IC50 of 191 nM. The value for `CNC(=O)c1c(F)cccc1Nc1cc(Nc2cn(C)nc2C)ncc1Cl` [Example 3.40, 2-[[5-Chloro-2-[(1,3-dimethylpyrazol-4-yl)amino]-4-pyridyl]amino]-6-fluoro-N-methyl-benzamide] was 122 nM. The value for `CCn1ccc(Nc2cc(Nc3ccccc3C(=O)NC)c(C(F)(F)F)cn2)n1` [Example 8.06, 2-[[2-[(1-ethylpyrazol-3-yl)amino]-5-(trifluoromethyl)-4-pyridyl]amino]-N-methyl-benzamide] was 11 nM; that for `CNC(=O)c1ccccc1Nc1cc(Nc2cc(C3CC3)[nH]n2)ncc1Cl` [Example 3.17, 2-[[5-chloro-2-[(5-cyclopropyl-1H-pyrazol-3-yl)amino]-4-pyridyl]amino]-N-methyl-benzamide] was 93 nM; that for `CNC(=O)c1ccccc1Nc1cc(Nc2cnn(CC(=O)N3CCOCC3)c2)ncc1F` [Example 4.05, 2-[[5-fluoro-2-[[1-(2-morpholino-2-oxo-ethyl)pyrazol-4-yl]amino]-4-pyridyl]amino]-N-methyl-benzamide] was 1300 nM. As to `CONC(=O)c1ccc(F)cc1Nc1cc(Nc2cn(C)nc2C)ncc1C(F)(F)F` [Example 15.01, 2-[[2-[(1,3-dimethylpyrazol-4-yl)amino]-5-(trifluoromethyl)-4-pyridyl]amino]-4-fluoro-N-methoxy-benzamide], the midpoint of inhibition, the IC50, lay at 4 nM. As for `CCn1nccc1Nc1cc(Nc2cccc3c2C(=O)N(C)CC3)c(Cl)cn1` [Example 6.06, 8-[[5-chloro-2-[(2-ethylpyrazol-3-yl)amino]-4-pyridyl]amino]-2-methyl-3,4-dihydroisoquinolin-1-one], the figure is 4 nM; as for `CNC(=O)c1ccc(F)cc1Nc1cc(Nc2cn(C)nc2C)ncc1C(F)(F)F` [Example 10.05, 2-[[2-[(1,3-dimethylpyrazol-4-yl)amino]-5-(trifluoromethyl)-4-pyridyl]amino]-4-fluoro-N-methyl-benzamide], 9 nM; as for `CN1CCc2cccc(Nc3cc(Nc4ccn(C)n4)ncc3Cl)c2C1=O` [Example 6.07, 8-[[5-chloro-2-[(1-methylpyrazol-3-yl)amino]-4-pyridyl]amino]-2-methyl-3,4-dihydroisoquinolin-1-one], 9 nM. As for `CNC(=O)c1ccccc1Nc1cc(Nc2c[nH]nc2C)ncc1C(F)(F)F` [Example 12.09, N-methyl-2-[[2-[(3-methyl-1H-pyrazol-4-yl)amino]-5-(trifluoromethyl)-4-pyridyl]amino]benzamide], the figure is 3 nM; as for `CNC(=O)c1ccccc1Nc1cc(Nc2cc(C)[nH]n2)ncc1Cl` [Example 3.16, 2-[[5-Chloro-2-[(5-methyl-1H-pyrazol-3-yl)amino]pyridin-4-yl]amino]-N-methylbenzamide], 93 nM. Take `CNC(=O)c1ccccc1Nc1cc(Nc2cnn(CC(=O)N3CCCC3)c2)ncc1F` [Example 4.01, 2-[[5-Fluoro-2-[[1-(2-oxo-2-pyrrolidin-1-yl-ethyl)pyrazol-4-yl]amino]-4-pyridyl]amino]-N-methyl-benzamide]: half-maximal inhibition (IC50) required 1510 nM. The value for `CNC(=O)c1ccccc1Nc1cc(Nc2cn(CCO)nc2C)ncc1C(F)(F)F` [Example 13.06, 2-[[2-[[1-(2-hydroxyethyl)-3-methyl-pyrazol-4-yl]amino]-5-(trifluoromethyl)-4-pyridyl]amino]-N-methyl-benzamide] was 6 nM; that for `CNC(=O)c1c(Nc2cc(Nc3cn(C)nc3C)ncc2C(F)(F)F)cccc1OC` [Example 5.02, 2-[[2-[(1,3-dimethylpyrazol-4-yl)amino]-5-(trifluoromethyl)-4-pyridyl]amino]-6-methoxy-N-methyl-benzamide] was 9 nM. The molecule `COCCN(C)C(=O)Cn1cc(Nc2cc(Nc3cccc4c3C(=O)N(C)CC4)c(F)cn2)cn1` [Example 4.24, 2-[4-[[5-fluoro-4-[(2-methyl-1-oxo-3,4-dihydroisoquinolin-8-yl)amino]-2-pyridyl]amino]pyrazol-1-yl]-N-(2-methoxyethyl)-N-methyl-acetamide] gave an IC50 of 294 nM. As for `CNC(=O)c1cccc(F)c1Nc1cc(Nc2cn(C)nc2C)ncc1C(F)(F)F` [Example 10.06, 2-[[2-[(1,3-dimethylpyrazol-4-yl)amino]-5-(trifluoromethyl)-4-pyridyl]amino]-3-fluoro-N-methyl-benzamide], the half-maximal inhibitory concentration (IC50) stood at 10 nM.

In turn, `COCCNC(=O)Cn1cc(Nc2cc(Nc3cccc4c3C(=O)N(C)CC4)c(Cl)cn2)cn1` [Example 3.24, 2-[4-[[5-chloro-4-[(2-methyl-1-oxo-3,4-dihydroisoquinolin-8-yl)amino]-2-pyridyl]amino]pyrazol-1-yl]-N-(2-methoxyethyl)acetamide] showed an IC50 of 18 nM.

Molecule `COCCNC(=O)Cn1cc(Nc2cc(Nc3cccc4c3C(=O)N(C)CC4)c(F)cn2)cn1` [Example 4.23, 2-[4-[[5-fluoro-4-[(2-methyl-1-oxo-3,4-dihydroisoquinolin-8-yl)amino]-2-pyridyl]amino]pyrazol-1-yl]-N-(2-methoxyethyl)acetamide] returned an IC50 of 449 nM. The value for `CNC(=O)c1ccccc1Nc1cc(Nc2cnn(CC(C)C)c2)ncc1C(F)(F)F` [Example 8.09, 2-[[2-[(1-isobutylpyrazol-4-yl)amino]-5-(trifluoromethyl)-4-pyridyl]amino]-N-methyl-benzamide] was 69 nM.
